Experimental data published in patent US7186831B2, “5-halo-2-alkyl[1,2,4]triazolo[1,5-a]pyrimidin-7-amines” (priority 2001, dated 2007).

Test: log P by HPLC
Format: physicochemical
Conditions: HPLC, gradient method, acetonitrile/0.1% aqueous phosphoric acid; EEC directive 79/831 Annex V. A8

SMILES | logP
CCN(CC1CCCO1)c1c(-c2ccc(F)cc2F)c(Cl)nc2nc(C3CC3)nn12 (stereo not shown) [compound 593] | 3.78
CCN(CCOC)c1c(-c2ccc(F)cc2F)c(Cl)nc2nc(C3CC3)nn12 [compound 594] | 3.46
CCOC(=O)CN(CC)c1c(-c2ccc(F)cc2F)c(Cl)nc2nc(C3CC3)nn12 [compound 595] | 3.54
CCCCN(CC)c1c(-c2ccc(F)cc2F)c(Cl)nc2nc(C3CC3)nn12 [compound 596] | 4.52
CCN(CC)c1c(-c2ccc(F)cc2F)c(Cl)nc2nc(C3CC3)nn12 [compound 597] | 3.73
CCCN(CC1CC1)c1c(-c2ccc(F)cc2F)c(Cl)nc2nc(C3CC3)nn12 [compound 598] | 4.53
CCCN(CC1CCCCO1)c1c(-c2ccc(F)cc2F)c(Cl)nc2nc(C3CC3)nn12 (stereo not shown) [compound 599] | 4.71
CCCN(CC1CCCO1)c1c(-c2ccc(F)cc2F)c(Cl)nc2nc(C3CC3)nn12 (stereo not shown) [compound 600] | 4.22
CCCN(Cc1cccs1)c1c(-c2ccc(F)cc2F)c(Cl)nc2nc(C3CC3)nn12 [compound 601] | 4.64
CCCN(CCOC)c1c(-c2ccc(F)cc2F)c(Cl)nc2nc(C3CC3)nn12 [compound 602] | 3.84
OC1CCN(c2c(-c3ccc(F)cc3F)c(Cl)nc3nc(C4CC4)nn23)C1 (stereo not shown) [compound 603] | 2.2
CC1CCCN1c1c(-c2ccc(F)cc2F)c(Cl)nc2nc(C3CC3)nn12 (stereo not shown) [compound 604] | 3.76
CN(C)C1CCN(c2c(-c3ccc(F)cc3F)c(Cl)nc3nc(C4CC4)nn23)C1 (stereo not shown) [compound 605] | 1.46
Fc1ccc(-c2c(Cl)nc3nc(C4CC4)nn3c2N2CCCC2)c(F)c1 [compound 606] | 3.36
OC1CCN(c2c(-c3ccc(F)cc3F)c(Cl)nc3nc(C4CC4)nn23)CC1 [compound 607] | 2.29
Fc1ccc(-c2c(Cl)nc3nc(C4CC4)nn3c2N2CC=CCC2)c(F)c1 [compound 608] | 3.72
Fc1ccc(-c2c(Cl)nc3nc(C4CC4)nn3c2N2CCC3(CC2)OCCO3)c(F)c1 [compound 609] | 3.22
CC1CC(C)CN(c2c(-c3ccc(F)cc3F)c(Cl)nc3nc(C4CC4)nn23)C1 (stereo not shown) [compound 610] | 4.72
CC1CCCCN1c1c(-c2ccc(F)cc2F)c(Cl)nc2nc(C3CC3)nn12 (stereo not shown) [compound 611] | 4.3
CC1CCCN(c2c(-c3ccc(F)cc3F)c(Cl)nc3nc(C4CC4)nn23)C1 (stereo not shown) [compound 612] | 4.37
CC1CCN(c2c(-c3ccc(F)cc3F)c(Cl)nc3nc(C4CC4)nn23)CC1 [compound 613] | 4.41

SMILES | logP
OC1CCCN(c2c(-c3ccc(F)cc3F)c(Cl)nc3nc(C4CC4)nn23)C1 (stereo not shown) [compound 614] | 2.57
CC1(C)CCN(c2c(-c3ccc(F)cc3F)c(Cl)nc3nc(C4CC4)nn23)CC1 [compound 615] | 4.67
COCCNc1c(-c2ccc(F)cc2Cl)c(Cl)nc2nc(C3CC3)nn12 [compound 616] | 3.07
CC1CCCCN1c1c(-c2ccc(F)cc2Cl)c(Cl)nc2nc(C3CC3)nn12 (stereo not shown) [compound 617] | 4.72
CC1CCN(c2c(-c3ccc(F)cc3Cl)c(Cl)nc3nc(C4CC4)nn23)CC1 [compound 618] | 4.82
CN(C)Nc1c(-c2ccc(F)cc2Cl)c(Cl)nc2nc(C3CC3)nn12 [compound 619] | 3.29
CC(NNc1c(-c2ccc(F)cc2Cl)c(Cl)nc2nc(C3CC3)nn12)C1CC1 (stereo not shown) [compound 620] | 3.81
CC(C)CNc1c(-c2ccc(F)cc2Cl)c(Cl)nc2nc(C3CC3)nn12 [compound 621] | 3.9
CC(C)(C)CNc1c(-c2ccc(F)cc2Cl)c(Cl)nc2nc(C3CC3)nn12 [compound 622] | 4.37
CCC(C)Nc1c(-c2ccc(F)cc2Cl)c(Cl)nc2nc(C3CC3)nn12 (stereo not shown) [compound 623] | 3.9
Fc1ccc(-c2c(Cl)nc3nc(C4CC4)nn3c2NC2CCCC2)c(Cl)c1 [compound 624] | 4.13
Fc1ccc(-c2c(Cl)nc3nc(C4CC4)nn3c2NCC2CC2)c(Cl)c1 [compound 625] | 3.63
C=C(C)CNc1c(-c2ccc(F)cc2Cl)c(Cl)nc2nc(C3CC3)nn12 [compound 626] | 3.59
CC(C)CN(C)c1c(-c2ccc(F)cc2Cl)c(Cl)nc2nc(C3CC3)nn12 [compound 627] | 4.51
COCCN(C)c1c(-c2ccc(F)cc2Cl)c(Cl)nc2nc(C3CC3)nn12 [compound 628] | 3.46
C=C(C)CN(C)c1c(-c2ccc(F)cc2Cl)c(Cl)nc2nc(C3CC3)nn12 [compound 629] | 4.41
C=C(C)CN(CC)c1c(-c2ccc(F)cc2Cl)c(Cl)nc2nc(C3CC3)nn12 [compound 630] | 4.77
CCN(CCOC)c1c(-c2ccc(F)cc2Cl)c(Cl)nc2nc(C3CC3)nn12 [compound 631] | 3.81
CCN(CC)c1c(-c2ccc(F)cc2Cl)c(Cl)nc2nc(C3CC3)nn12 [compound 632] | 4.13
Fc1ccc(-c2c(Cl)nc3nc(C4CC4)nn3c2N2CCCC2)c(Cl)c1 [compound 634] | 3.72
Fc1ccc(-c2c(Cl)nc3nc(C4CC4)nn3c2N2CCCCC2)c(Cl)c1 [compound 635] | 4.37

SMILES | logP
Fc1ccc(-c2c(Cl)nc3nc(C4CC4)nn3c2N2CCOCC2)c(Cl)c1 [compound 636] | 3.18
CC(C)CC(C)Nc1c(-c2ccc(F)cc2Cl)c(Cl)nc2nc(C3CC3)nn12 (stereo not shown) [compound 637] | 4.61
Fc1ccc(-c2c(Cl)nc3nc(C4CC4)nn3c2NCC(F)(F)F)c(Cl)c1 [compound 638] | 3.37
Fc1ccc(-c2c(Cl)nc3nc(C4CC4)nn3c2N2CCCC2C(F)(F)F)c(Cl)c1 (stereo not shown) [compound 639] | 4.23
C=C(C)CN(CC)c1c(-c2ccc(F)cc2Cl)c(Cl)nc2nc(C)nn12 [compound 643] | 4.06
CC(C)CNc1c(-c2ccc(F)cc2F)c(Cl)nc2nc(C3CC3)nn12 [compound 644] | 3.38
CCCCNc1c(-c2ccc(F)cc2F)c(Cl)nc2nc(C3CC3)nn12 [compound 645] | 3.6
CC(C)(C)CNc1c(-c2ccc(F)cc2F)c(Cl)nc2nc(C3CC3)nn12 [compound 646] | 4
CCC(C)Nc1c(-c2ccc(F)cc2F)c(Cl)nc2nc(C3CC3)nn12 (stereo not shown) [compound 647] | 3.57
Fc1ccc(-c2c(Cl)nc3nc(C4CC4)nn3c2NCCC(F)(F)F)c(F)c1 [compound 648] | 3.25
CCCNc1c(-c2ccc(F)cc2F)c(Cl)nc2nc(C3CC3)nn12 [compound 649] | 3.2
Fc1ccc(-c2c(Cl)nc3nc(C4CC4)nn3c2NC2CCCC2)c(F)c1 [compound 650] | 3.76
CC(C)Nc1c(-c2ccc(F)cc2F)c(Cl)nc2nc(C3CC3)nn12 [compound 651] | 3.2
Fc1ccc(-c2c(Cl)nc3nc(C4CC4)nn3c2NC2CCCCC2)c(F)c1 [compound 652] | 4.02
CC(Nc1c(-c2ccc(F)cc2F)c(Cl)nc2nc(C3CC3)nn12)C1CCCCC1 (stereo not shown) [compound 653] | 4.84
COCCNc1c(-c2ccc(F)cc2F)c(Cl)nc2nc(C3CC3)nn12 [compound 654] | 2.75
Fc1ccc(-c2c(Cl)nc3nc(C4CC4)nn3c2NC2CC2)c(F)c1 [compound 655] | 2.95
Fc1ccc(-c2c(Cl)nc3nc(C4CC4)nn3c2NCC2CC2)c(F)c1 [compound 656] | 3.26
C=C(C)CNc1c(-c2ccc(F)cc2F)c(Cl)nc2nc(C3CC3)nn12 [compound 657] | 3.22
Fc1ccc(-c2c(Cl)nc3nc(C4CC4)nn3c2NC2CCCC(C(F)(F)F)C2)c(F)c1 (stereo not shown) [compound 658] | 3.98
Fc1ccc(-c2c(Cl)nc3nc(C4CC4)nn3c2NC2CCC(C(F)(F)F)CC2)c(F)c1 (stereo not shown) [compound 659] | 3.93

SMILES | logP
CC(C)CC(C)Nc1c(-c2ccc(F)cc2F)c(Cl)nc2nc(C3CC3)nn12 (stereo not shown) [compound 660] | 4.24
CN(C)CCN(C)c1c(-c2ccc(F)cc2F)c(Cl)nc2nc(C3CC3)nn12 [compound 661] | 1.56
C#CCN(C)c1c(-c2ccc(F)cc2F)c(Cl)nc2nc(C3CC3)nn12 [compound 662] | 3.21
CN(CC1OCCO1)c1c(-c2ccc(F)cc2F)c(Cl)nc2nc(C3CC3)nn12 [compound 663] | 3.1
C=CCN(C)c1c(-c2ccc(F)cc2F)c(Cl)nc2nc(C3CC3)nn12 [compound 664] | 3.61
CN(C)CCCN(C)c1c(-c2ccc(F)cc2F)c(Cl)nc2nc(C3CC3)nn12 [compound 665] | 1.61
COC(CN(C)c1c(-c2ccc(F)cc2F)c(Cl)nc2nc(C3CC3)nn12)OC [compound 666] | 3.24
CN(Cc1ccco1)c1c(-c2ccc(F)cc2F)c(Cl)nc2nc(C3CC3)nn12 [compound 667] | 3.63
CC(C)CN(C)c1c(-c2ccc(F)cc2F)c(Cl)nc2nc(C3CC3)nn12 [compound 668] | 4.07
COCCN(C)c1c(-c2ccc(F)cc2F)c(Cl)nc2nc(C3CC3)nn12 [compound 669] | 3.16
C=C(C)CN(C)c1c(-c2ccc(F)cc2F)c(Cl)nc2nc(C3CC3)nn12 [compound 670] | 4.05
CCCCN(C)c1c(-c2ccc(F)cc2F)c(Cl)nc2nc(C3CC3)nn12 [compound 671] | 4.21
Fc1cc(F)c(-c2c(Cl)nc3nc(C4CC4)nn3c2NCC(F)(F)F)c(F)c1 [compound 672] | 3.25
CC1CCCCN1c1c(-c2c(F)cc(F)cc2F)c(Cl)nc2nc(C3CC3)nn12 (stereo not shown) [compound 674] | 4.6
Fc1cc(F)c(-c2c(Cl)nc3nc(C4CC4)nn3c2N2CCC(F)CC2)c(F)c1 [compound 675] | 3.68
CC(C)CN(C)c1c(-c2c(F)cccc2F)c(Cl)nc2nc(C3CC3)nn12 [compound 676] | 4.08
C=C(C)CN(C)c1c(-c2c(F)cccc2F)c(Cl)nc2nc(C3CC3)nn12 [compound 677] | 3.98
CC1CCCN1c1c(-c2c(F)cccc2F)c(Cl)nc2nc(C3CC3)nn12 (stereo not shown) [compound 678] | 3.68
Fc1cccc(F)c1-c1c(Cl)nc2nc(C3CC3)nn2c1N1CCCC1 [compound 679] | 3.25
